Laboratory results published in article PMC9545474, “Anticancer Water‐Soluble Organoruthenium Complexes: Synthesis and Preclinical Evaluation” (Chembiochem, 2022).
Where a name gives a salt, the structure may show the parent alone. Read-outs that look alike come from different tables or passages of the source.

How the values were obtained:
[1] = test system: H460 non-small-cell lung cancer cells; experiment: 24-hour MTT chemosensitivity assay with 72-hour recovery, H460; type: cell-based
Procedure: (§1) Chemosensitivity studies were undertaken using a 24‐hour MTT assay, with a 72‐hour recovery period. The IC50 values were determined against ovarian A2780 (cisplatin‐sensitive) and A2780cisR (cisplatin‐resistant) cancer cell lines, non‐small‐cell lung H460 cancer cell line, and normal prostate PNT2 cell line, exposed to each of compounds 4–8, cisplatin or the phosphine ligands (Table 1 and S4, Figures S29–S31). […] This is unusual but can be related to solubility issues not visible for the naked eye and thus hindering its activity in cells. […] When tested on their own, the phosphine ligands are not active below 100 μM for all four cell lines. […] This therefore prevents comparison with the well‐known RAPTA family, and more especially with RAPTA−C which bears a PTA ligand and a p‐cym ligand, making this complex relatively similar in terms of geometry with complex 4.[21] […] This confirms the interest of the sulfur coordinating atom in terms of cytotoxicity for organoruthenium complexes.[23]
(§2) Chemosensitivity assay: In vitro chemosensitivity tests were performed against A2780, A2780cisR, PNT2 and H460 cells. Cells were routinely maintained as monolayer cultures in RPMI 1640 medium supplemented with 10 % foetal calf serum, penicillin (100 I.U./mL) and streptomycin (100 μg/mL), sodium pyruvate (1 mM) and L‐glutamine (2 mM). For chemosensitivity studies, cells were seeded in 96‐well plates at a concentration of 7.5×10^3 cells per well and the plates were incubated for 24 h at 37 °C and a 5 % CO2 humidified atmosphere prior to drug exposure.
(§3) Complexes were dissolved in either DMSO (complexes 4, 5, and 8) or PBS (complexes 6 and 7) to provide stock solutions which were further diluted with media to provide a range of final concentrations. Drug‐media solutions were added to cells (the final concentration of DMSO was less than 1 % (v/v) in all cases) and incubated for 24 h at 37 °C and a 5 % CO2 humidified atmosphere. The drug‐media solution was removed from the wells and the cells were washed with PBS (100 μL, twice) and 200 μL of complete fresh media were added to each well. The plates were further incubated for 72 h at 37 °C and a 5 % CO2 humidified atmosphere to allow for a period of recovery. 3‐(4,5‐dimethylthiazol‐2‐yl)‐2,5‐diphenyltetrazolium bromide (MTT) (40 μL, 2.5 mg/mL) was added to each well and plates were incubated for 2 h. All solutions were then removed and 100 μL of DMSO was added to each well in order to dissolve the purple formazan crystals. A Thermo Scientific Multiskan EX microplate photometer was used to measure the absorbance in each well at 570 nm. Cell survival was determined as the absorbance of treated cells divided by the absorbance of controls and expressed as a percentage. The IC50 values were determined from plots of % survival against drug concentration. Each experiment was repeated in triplicates of triplicates and a mean value was obtained and stated as IC50 (μM) ± SD. Untreated cells were used as a negative control, and cells treated with cisplatin were used as a positive control.

[2] = test system: A2780cisR cisplatin-resistant ovarian cancer cells; experiment: 24-hour MTT chemosensitivity assay with 72-hour recovery, A2780cisR; type: cell-based, human; settings: for IC50: read-out: IC50 values ±SD, A2780cisR; for Selectivity index (SI), A2780cisR: mean IC50 PNT2 / mean IC50 A2780cisR
Procedure: as §1, §2, §3

[3] = test system: A2780 ovarian cancer cells; experiment: 24-hour MTT chemosensitivity assay with 72-hour recovery, A2780; type: cell-based, human; settings: for Selectivity index (SI), A2780: mean IC50 PNT2 / mean IC50 A2780
Procedure: as §1, §2, §3

[4] = test system: PNT2 non-cancerous human prostate cells; experiment: 24-hour MTT chemosensitivity assay with 72-hour recovery, PNT2; type: cell-based
Procedure: as §1, §2, §3

A2780 cells = experiment: FITC annexin-V / PI apoptosis assay by flow cytometry; type: cell-based, human; settings: A2780, 24 h, complexes 2×IC50, doxorubicin 0.5 µM; for viability at 0.5 µM: Homo sapiens
Description: Annexin V‐FITC and propidium iodide (PI) have been used to distinguish between viable cells (Q1‐LL), early apoptotic cells (Q1‐LR), late apoptotic cells (Q1‐UR), and necrotic cells (Q1‐UL). […] Both complexes 6 and 8 induce apoptosis of A2780 cells and treatment with the complexes results in 99.6 % and 95.4 % of the cells in late apoptosis, respectively.
Figure 9 Flow cytometry analysis of A2780 cells exposed to complexes 6 or 8 at twice the IC50 concentration compared to a negative control. FITC reads annexin fluorescence and PE reads propidium iodide. Abbreviations: Q1‐UL=non‐viable cells; Q1‐UR=late‐stage apoptotic cells; Q1‐LR=early‐stage apoptotic cells and Q1‐LL=healthy cells.
FITC annexin‐V apoptosis assay: Flow cytometry analysis of apoptotic populations was carried out using the FITC Annexin V Apoptosis Detection Kit with PI (BioLegend®) according to manufacturer's instructions. Briefly, A2780 cells were seeded in 6‐well plates at a concentration of 1.0×10^6 cells per well and the plates were incubated for 24 h at 37 °C and a 5 % CO2 humidified atmosphere. […] Cells were then harvested using trypsin (without EDTA) and stained with PI/Annexin V‐FITC. After staining in the dark for 15 min at room temperature, cell pellets were analysed in a BD Accuri C6 Plus System flow cytometer and data was analysed using the BD Accuri C6 Plus software. These experiments were carried out in duplicate of triplicates in independent experiments; although only selected dot plots are shown, full numerical data and statistical analysis can be found in the Supporting Information.

[5] = 24 h exposure, 72 h recovery, MTT, read-out: IC50 values ±SD, H460
[6] = 24 h exposure, 72 h recovery, MTT
[7] = 24 h exposure, 72 h recovery, MTT, read-out: IC50 values ±SD, A2780
[8] = 24 h exposure, 72 h recovery, MTT, read-out: IC50 values ±SD, PNT2
[9] = Homo sapiens, NCI-H460, read-out: IC50 values ±SD, H460
[10] = Homo sapiens, A2780, read-out: IC50 values ±SD, A2780
[11] = Homo sapiens, PNT2, read-out: IC50 values ±SD, PNT2
[12] = Combined results, Average of two experiments

## Cc1ccc(C(C)C)cc1.N#CC1=C(C#N)[S][Ru-]([P+](c2ccc(C(F)(F)F)cc2)(c2cccc(S(=O)(=O)[O-])c2)c2cccc(S(=O)(=O)[O-])c2)[S]1.[Na+].[Na+] [Complex 7, (η^6‐p‐cymene)(p‐DANPHOS)Ru(Mnt)]
[1]; [5]
  IC50: 2.3 ± 0.3 µM
[1]; mean IC50 PNT2 / mean IC50 H460
  Selectivity index (SI), H460: 0.96
[2]; [6]
  IC50: 2.3 ± 0.7 µM
[2]
  Selectivity index (SI), A2780cisR: 0.96
[3]; [7]
  IC50: 2.8 ± 0.8 µM
[3]
  Selectivity index (SI), A2780: 0.79
[4]; [8]
  IC50: 2.2 ± 0.1 µM

## C1N2CN3CN1CP(C2)C3 [PTA, 1,3,5‐triaza‐7‐phosphaadamantane]
[1]; [9]
  IC50: ≥ 100 µM
[2]; Homo sapiens, A2780cisR
  IC50: ≥ 100 µM
[3]; [10]
  IC50: ≥ 100 µM
[4]; [11]
  IC50: ≥ 100 µM

## COc1cccc2c1C(=O)c1c(O)c3c(c(O)c1C2=O)C[C@@](O)(C(=O)CO)C[C@@H]3O[C@H]1C[C@H](N)[C@H](O)[C@H](C)O1 [Doxorubicin, doxorubicin, reference compound]
A2780 cells; [12]
  Early apoptosis (Q1-LR): 0.0%
  Late apoptosis (Q1-UR): 99.9%
  Necrosis (Q1-UL): 0.1%
A2780 cells; Experiment 1, Average
  Early apoptosis (Q1-LR): 0.0%
  Late apoptosis (Q1-UR): 99.9%
  Necrosis (Q1-UL): 0.1%
  Viable cells (Q1-LL): 0.0%
A2780 cells; Experiment 1, Rep 1
  Early apoptosis (Q1-LR): 0.0%
  Late apoptosis (Q1-UR): 99.8%
  Necrosis (Q1-UL): 0.2%
A2780 cells; Experiment 1, Rep 2
  Early apoptosis (Q1-LR): 0.0%
  Late apoptosis (Q1-UR): 99.9%
  Necrosis (Q1-UL): 0.1%
A2780 cells; Experiment 1, Rep 3
  Early apoptosis (Q1-LR): 0.0%
  Late apoptosis (Q1-UR): 100.0%
  Necrosis (Q1-UL): 0.0%
A2780 cells; Experiment 2, Average
  Early apoptosis (Q1-LR): 0.0%
  Late apoptosis (Q1-UR): 99.9%
  Necrosis (Q1-UL): 0.0%
  Viable cells (Q1-LL): 0.0%
A2780 cells; Experiment 2, Rep 1
  Early apoptosis (Q1-LR): 0.0%
  Late apoptosis (Q1-UR): 99.9%
  Necrosis (Q1-UL): 0.0%
A2780 cells; Experiment 2, Rep 2
  Early apoptosis (Q1-LR): 0.0%
  Late apoptosis (Q1-UR): 99.9%
  Necrosis (Q1-UL): 0.1%
A2780 cells; Experiment 2, Rep 3
  Early apoptosis (Q1-LR): 0.0%
  Late apoptosis (Q1-UR): 100.0%
  Necrosis (Q1-UL): 0.0%
A2780 cells; Combined results, Average of two experiments, read-out: Viable cells (Q1-LL)
  viability at 0.5 µM: 0%
A2780 cells; Experiment 1, Average, read-out: Viable cells (Q1-LL)
  viability at 0.5 µM: 0%
A2780 cells; Experiment 1, Rep 1, read-out: Viable cells (Q1-LL)
  viability at 0.5 µM: 0%
A2780 cells; Experiment 1, Rep 2, read-out: Viable cells (Q1-LL)
  viability at 0.5 µM: 0%
A2780 cells; Experiment 1, Rep 3, read-out: Viable cells (Q1-LL)
  viability at 0.5 µM: 0%
A2780 cells; Experiment 2, Average, read-out: Viable cells (Q1-LL)
  viability at 0.5 µM: 0%
A2780 cells; Experiment 2, Rep 1, read-out: Viable cells (Q1-LL)
  viability at 0.5 µM: 0%
A2780 cells; Experiment 2, Rep 2, read-out: Viable cells (Q1-LL)
  viability at 0.5 µM: 0.1%
A2780 cells; Experiment 2, Rep 3, read-out: Viable cells (Q1-LL)
  viability at 0.5 µM: 0%

## (η^6‐p‐cymene)(DAPTA)Ru(Mnt) [Complex 5]
[1]; [5]
  IC50: ≥ 100 µM
[2]; [6]
  IC50: 72 ± 6 µM
[2]; IC50 A2780cisR / IC50 A2780
  Selectivity factor (cross-resistance, resistance factor RF): 5.1
[2]
  Selectivity index (SI), A2780cisR: 0.49
[3]; [7]
  IC50: 14 ± 2 µM
[3]
  Selectivity index (SI), A2780: 2.36
[4]; [8]
  IC50: 33 ± 1.4 µM

## O=S(=O)(O)c1cccc(P(c2ccc(C(F)(F)F)cc2)c2cccc(S(=O)(=O)O)c2)c1 [p-DANPHOS, bis(3‐sulfonatophenyl)(4‐trifluoromethylphenyl)phosphine disodium dihydrate]
[1]; [9]
  IC50: ≥ 100 µM
[2]; Homo sapiens, A2780cisR
  IC50: ≥ 100 µM
[3]; [10]
  IC50: ≥ 100 µM
[4]; [11]
  IC50: ≥ 100 µM

## CC(=O)N1CN2CN(C(C)=O)CP(C2)C1 [DAPTA, 3,7‐diacetyl‐1,3,7‐triaza‐5‐phosphabicyclo[3.3.1]nonane]
[1]; [9]
  IC50: ≥ 100 µM
[2]; Homo sapiens, A2780cisR
  IC50: ≥ 100 µM
[3]; [10]
  IC50: ≥ 100 µM
[4]; [11]
  IC50: ≥ 100 µM

## O=S(=O)(O)c1cccc(P(c2cccc(S(=O)(=O)O)c2)c2cccc(S(=O)(=O)O)c2)c1 [TPPTS, triphenylphosphine‐3,3′,3′′‐trisulfonic acid trisodium salt]
[1]; [5]
  IC50: ≥ 100 µM
[2]; [6]
  IC50: ≥ 100 µM
[3]; [7]
  IC50: ≥ 100 µM
[4]; [8]
  IC50: ≥ 100 µM
